Data from US8846929B2, “Substituted-quinoxaline-type piperidine compounds and the uses thereof” (priority 2007, dated 2014).

Target: human opioid receptor-like (ORL-1) (Homo sapiens (Human), UniProt P41146)
Experiment: In vitro ORL-1 receptor [35S]GTPγS functional assay
Assay type: biochemical

human opioid receptor-like (ORL-1), sequence (P41146 whole entry): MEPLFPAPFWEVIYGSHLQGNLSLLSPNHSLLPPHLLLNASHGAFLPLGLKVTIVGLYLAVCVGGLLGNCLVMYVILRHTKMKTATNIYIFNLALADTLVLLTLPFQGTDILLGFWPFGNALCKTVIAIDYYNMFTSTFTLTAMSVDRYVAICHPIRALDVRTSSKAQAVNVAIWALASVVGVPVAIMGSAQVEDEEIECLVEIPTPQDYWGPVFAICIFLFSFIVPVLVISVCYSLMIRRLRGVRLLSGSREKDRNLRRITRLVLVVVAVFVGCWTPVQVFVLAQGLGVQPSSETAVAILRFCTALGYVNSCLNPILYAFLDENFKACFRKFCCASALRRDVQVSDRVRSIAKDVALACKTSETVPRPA

| Compound | EC50 |
| --- | --- |
| CN(C)c1nc2ccccc2n(C2CCN(C3CCCCCCC3)CC2)c1=O [compound 2, 1-(1-cyclooctylpiperidin-4-yl)-3-(dimethylamino)quinoxalin-2(1H)-one] | 580 ± 92 nM |
| CC(C)(C)OC(=O)NCCNc1nc2ccccc2n(C2CCN(C3CCCCCCC3)CC2)c1=O [compound 7, tert-butyl 2-(4-(1-cyclooctylpiperidin-4-yl)-3-oxo-3,4-dihydroquinoxalin-2-ylamino)ethylcarbamate] | 979 ± 40 nM |
| CC(C)(C)OC(=O)N1CCN(c2nc3ccccc3n(C3CCN(C4CCCCCCC4)CC3)c2=O)CC1 [compound 8, tert-butyl 4-(4-(1-cyclooctylpiperidin-4-yl)-3-oxo-3,4-dihydroquinoxalin-2-yl)piperazine-1-carboxylate] | 4560 ± 1120 nM |
| CC(=O)N1CC2CN(c3nc4ccccc4n(C4CCN(C5CCCCCCC5)CC4)c3=O)CC2C1 (stereo not shown) [compound 13, 3-(5-acetylhexahydropyrrolo[3,4-c]pyrrol-2(1H)-yl)-1-(1-cyclooctylpiperidin-4-yl)quinoxalin-2(1H)-one] | 1690 ± 166 nM |
| CC(C)(C)OC(=O)Nc1nc2ccccc2n(C2CCN(C3CCCCCCC3)CC2)c1=O [compound 14, tert-butyl 4-(1-cyclooctylpiperidin-4-yl)-3-oxo-3,4-dihydroquinoxalin-2-ylcarbamate] | 4650 ± 238 nM |
| COC(=O)C1CCN(c2nc3ccccc3n(C3CCN(C4CCCCCCC4)CC3)c2=O)CC1 [compound 16] | 3750 ± 93 nM |
| CC(=O)Nc1nc2ccccc2n(C2CCN(C3CCCCCCC3)CC2)c1=O [compound 17, N-(4-(1-cyclooctylpiperidin-4-yl)-3-oxo-3,4-dihydroquinoxalin-2-yl)acetamide] | 7870 ± 2230 nM |
| O=C1CN(c2nc3ccccc3n(C3CCN(C4CCCCCCC4)CC3)c2=O)CCN1 [compound 18, 1-(1-cyclooctylpiperidin-4-yl)-3-(3-oxopiperazin-1-yl)quinoxalin-2(1H)-one] | 1280 ± 84 nM |
| O=c1c(N2Cc3ccccc3C2)nc2ccccc2n1C1CCN(C2CCCCCCC2)CC1 [compound 19, 1-(1-cyclooctylpiperidin-4-yl)-3-(isoindolin-2-yl)quinoxalin-2(1H)-one] | 286 ± 30 nM |
| CC(C)(C)OC(=O)NC1CCN(c2nc3ccccc3n(C3CCN(C4CCCCCCC4)CC3)c2=O)CC1 [compound 21] | 1470 ± 50 nM |
| C=CCNc1nc2ccccc2n(C2CCN(C3CCCCCCC3)CC2)c1=O [compound 24, 3-(allylamino)-1-(1-cyclooctylpiperidin-4-yl)quinoxalin-2(1H)-one] | 611 ± 71 nM |
| O=c1c(NCC(O)CO)nc2ccccc2n1C1CCN(C2CCCCCCC2)CC1 (stereo not shown) [compound 25, 1-(1-cyclooctylpiperidin-4-yl)-3-(2,3-dihydroxypropylamino)quinoxalin-2(1H)-one] | 781 ± 26 nM |
| N=C(N)NCCNc1nc2ccccc2n(C2CCN(C3CCCCCCC3)CC2)c1=O [compound 26] | 109 ± 5.9 nM |
| COC(=O)[C@@H]1CCCN1c1nc2ccccc2n(C2CCN(C3CCCCCCC3)CC2)c1=O [compound 27] | 969 ± 89 nM |
| COC(=O)[C@@H]1C[C@@H](O)CN1c1nc2ccccc2n(C2CCN(C3CCCCCCC3)CC2)c1=O [compound 28] | 1880 ± 285 nM |
| NC(=O)C1CCN(c2nc3ccccc3n(C3CCN(C4CCCCCCC4)CC3)c2=O)CC1 [compound 29] | 468 ± 81 nM |
| CS(=O)(=O)NC1CCN(c2nc3ccccc3n(C3CCN(C4CCCCCCC4)CC3)c2=O)CC1 [compound 30] | 699 ± 19 nM |
| NC(=O)CNc1nc2ccccc2n(C2CCN(C3CCCCCCC3)CC2)c1=O [compound 32] | 406 ± 42 nM |
| NC(=O)[C@H](CO)Nc1nc2ccccc2n(C2CCN(C3CCCCCCC3)CC2)c1=O [compound 33] | 211 ± 21 nM |
| CC(=O)N[C@@H]1CCN(c2nc3ccccc3n(C3CCN(C4CCCCCCC4)CC3)c2=O)C1 [compound 37] | 265 ± 31 nM |

| Compound | EC50 |
| --- | --- |
| NC(=O)[C@@H]1CCCN1c1nc2ccccc2n(C2CCN(C3CCCCCCC3)CC2)c1=O [compound 42] | 543 ± 27 nM |
| COC(=O)c1ccc2c(c1)CN(c1nc3ccccc3n(C3CCN(C4CCCCCCC4)CC3)c1=O)CC2 [compound 44] | 392 ± 6.6 nM |
| COC(=O)C(CO)Nc1nc2ccccc2n(C2CCN(C3CCCCCCC3)CC2)c1=O (stereo not shown) [compound 46] | 399 ± 56 nM |
| NC(=O)CCNc1nc2ccccc2n(C2CCN(C3CCCCCCC3)CC2)c1=O [compound 47] | 419 ± 12.7 nM |
| CC(=O)N1CCC(Nc2nc3ccccc3n(C3CCN(C4CCCCCCC4)CC3)c2=O)CC1 [compound 49] | 808 ± 110 nM |
| O=c1c(NC[C@@H](O)CO)nc2ccccc2n1C1CCN(C2CCCCCCC2)CC1 [compound 54] | 464 ± 28 nM |
| O=c1c(NC[C@H](O)CO)nc2ccccc2n1C1CCN(C2CCCCCCC2)CC1 [compound 55] | 421 ± 50 nM |
| CCOC(=O)CNc1nc2ccccc2n(C2CCN(C3CCCCCCC3)CC2)c1=O [compound 57] | 486 ± 34 nM |
| NCC(O)CNc1nc2ccccc2n(C2CCN(C3CCCCCCC3)CC2)c1=O (stereo not shown) [compound 58] | 151 ± 7.9 nM |
| CC(=O)N[C@H]1CCN(c2nc3ccccc3n(C3CCN(C4CCCCCCC4)CC3)c2=O)C1 [compound 59] | 383 ± 63 nM |
| NC(=O)C1CCCN(c2nc3ccccc3n(C3CCN(C4CCCCCCC4)CC3)c2=O)C1 (stereo not shown) [compound 60] | 2140 ± 661 nM |
| CCOC(=O)CN(C)c1nc2ccccc2n(C2CCN(C3CCCCCCC3)CC2)c1=O [compound 61] | 1230 ± 238 nM |
| NC(=O)CNc1nc2ccccc2n(C2CCN(C34CC5CC(CC(C5)C3)C4)CC2)c1=O [compound 64] | 457 ± 90 nM |
| CN(CC(O)CO)c1nc2ccccc2n(C2CCN(C3CCCCCCC3)CC2)c1=O (stereo not shown) [compound 65] | 348 ± 22 nM |
| CS(=O)(=O)N[C@@H]1CCN(c2nc3ccccc3n(C3CCN(C4CCCCCCC4)CC3)c2=O)C1 [compound 66] | 108 ± 15.1 nM |
| O=c1c(N2CC[C@H](O)C2)nc2ccccc2n1C1CCN(C2CCCCCCC2)CC1 [compound 68] | 478 ± 6.4 nM |
| CCOC(=O)c1nc2ccccc2n(C2CCN(C3CCCCCCC3)CC2)c1=O [compound 70, ethyl 4-(1-cyclooctylpiperidin-4-yl)-3-oxo-3,4-dihydroquinoxaline-2-carboxylate] | 788 ± 44 nM |
| O=C(c1nc2ccccc2n(C2CCN(C3CCCCCCC3)CC2)c1=O)N1CC2CNCC2C1 (stereo not shown) [compound 73, 1-(1-cyclooctylpiperidin-4-yl)-3-(octahydropyrrolo[3,4-c]pyrrole-2-carbonyl)quinoxalin-2(1H)-one] | 377 ± 115 nM |
| CNC(=O)c1nc2ccccc2n(C2CCN(C3CCCCCCC3)CC2)c1=O [compound 78] | 363 ± 20 nM |
| O=C(NCC(O)CO)c1nc2ccccc2n(C2CCN(C3CCCCCCC3)CC2)c1=O (stereo not shown) [compound 79] | 703 ± 39 nM |

| Compound | EC50 |
| --- | --- |
| O=C(Nc1ccc(=O)[nH]c1)c1nc2ccccc2n(C2CCN(C3CCCCCCC3)CC2)c1=O [compound 82] | 181 ± 9.8 nM |
| CONC(=O)c1nc2ccccc2n(C2CCN(C3CCCCCCC3)CC2)c1=O [compound 83] | 558 ± 77 nM |
| O=C(NOCc1ccccc1)c1nc2ccccc2n(C2CCN(C3CCCCCCC3)CC2)c1=O [compound 84] | 182 ± 22 nM |
| N#Cc1nc2ccccc2n(C2CCN(C3CCCCCCC3)CC2)c1=O [compound 88] | 201 ± 27 nM |
| O=c1c(NC[C@@H](O)CO)nc2ccccc2n1C1CCN(C23CC4CC(CC(C4)C2)C3)CC1 [compound 89] | 806 ± 85 nM |
| O=c1c(N2CC[C@@H](O)C2)nc2ccccc2n1C1CCN(C2CCCCCCC2)CC1 [compound 92] | 510 ± 100 nM |
| O=C1CCN(c2nc3ccccc3n(C3CCN(C4CCCCCCC4)CC3)c2=O)N1 [compound 119, 1-(1-cyclooctylpiperidin-4-yl)-3-(3-oxopyrazolidin-1-yl)quinoxalin-2(1H)-one] | 3660 ± 171 nM |
| CONC(=O)c1nc2ccccc2n([C@H]2C[C@H]3CC[C@@H](C2)N3C2CCCCCCC2)c1=O [compound 121] | 265 ± 27 nM |
| O=C(O)c1nc2ccc(F)cc2n([C@H]2C[C@H]3CC[C@@H](C2)N3C2CCCCCCC2)c1=O [compound 133] | 473 ± 27 nM |
| CC(C)CCC(C)N1[C@@H]2CCC[C@H]1C[C@@H](n1c(=O)c(C(=O)O)nc3ccccc31)C2 (stereo partly shown) [compound 303] | 298 ± 23 nM |
| CC(C)CC(C)N1[C@@H]2CCC[C@H]1C[C@@H](n1c(=O)c(C(=O)O)nc3ccccc31)C2 (stereo partly shown) [compound 304] | 150 ± 6 nM |
| O=C(O)c1cccc(CNc2nc3ccccc3n([C@H]3C[C@H]4CC[C@@H](C3)N4C3CCCCCCC3)c2=O)c1 [compound 305] | 394 ± 53 nM |
| O=C(O)C1CCCN1C(=O)c1nc2ccccc2n([C@H]2C[C@H]3CC[C@@H](C2)N3C2CCCCCCC2)c1=O (stereo partly drawn) [compound 306, 1-(4-((endo)-8-cyclooctyl-8-azabicyclo[3.2.1]octan-3-yl)-3-oxo-3,4-dihydroquinoxaline-2-carbonyl)pyrrolidine-2-carboxylic acid] | 548 ± 57 nM |
| CN(CC(=O)O)C(=O)c1nc2ccccc2n([C@H]2C[C@H]3CC[C@@H](C2)N3C2CCCCCCC2)c1=O [compound 307, 2-(4-((endo)-8-cyclooctyl-8-azabicyclo[3.2.1]octan-3-yl)-N-methyl-3-oxo-3,4-dihydroquinoxaline-2-carboxamido)acetic acid] | 400 ± 72 nM |
| CSCCC(NC(=O)c1nc2ccccc2n([C@H]2C[C@H]3CC[C@@H](C2)N3C2CCCCCCC2)c1=O)C(=O)O (stereo partly drawn) [compound 309, 2-(4-((endo)-8-cyclooctyl-8-azabicyclo[3.2.1]octan-3-yl)-3-oxo-3,4-dihydroquinoxaline-2-carboxamido)-4-(methylthio)butanoic acid] | 659 ± 155 nM |
| O=C(O)CC(NC(=O)c1nc2ccccc2n([C@H]2C[C@H]3CC[C@@H](C2)N3C2CCCCCCC2)c1=O)C(=O)O (stereo partly drawn) [compound 310, 2-(4-((endo)-8-cyclooctyl-8-azabicyclo[3.2.1]octan-3-yl)-3-oxo-3,4-dihydroquinoxaline-2-carboxamido)succinic acid] | 419 ± 62 nM |
| CC(NC(=O)c1nc2ccccc2n([C@H]2C[C@H]3CC[C@@H](C2)N3C2CCCCCCC2)c1=O)C(=O)O (stereo partly drawn) [compound 312, 2-(4-((endo)-8-cyclooctyl-8-azabicyclo[3.2.1]octan-3-yl)-3-oxo-3,4-dihydroquinoxaline-2-carboxamido)propanoic acid] | 138 ± 8.1 nM |
| O=C(O)c1ccc(CNC(=O)c2nc3ccccc3n([C@H]3C[C@H]4CC[C@@H](C3)N4C3CCCCCCC3)c2=O)cc1 [compound 314] | 453 ± 66 nM |
